Test results as given in paper PMC11439681, “The identification of potent dual-target monopolar spindle 1 (MPS1) and histone deacetylase 8 (HDAC8) inhibitors through pharmacophore modeling, molecular docking, molecular dynamics simulations, and biological evaluation” (Frontiers in Pharmacology, 2024).

Tests used:
BEAS-2B = assay: MTT cytotoxicity assay, BEAS-2B normal cells; type: cell-based; settings: Homo sapiens, 72 h cell treatment
Experimental: (§1) The cells (5 × 10^4 cells/well) were incubated overnight in 96-well plates. A series of solutions containing varying concentrations of inhibitors were added and incubated at 37°C for a period of 72 h. Subsequently, the culture medium was removed, followed by a subsequent incubation of the cells with a 5 mg/mL MTT stock solution for 4 h. After centrifugation, the precipitate was solubilized in DMSO and gently shaken for 15 min. Finally, the absorbance measurement at 570 nm was completed using a microplate reader. Data analysis was performed using GraphPad Prism 6.0 software.

Ace-K62 of PKM2 = assay: Gene expression analysis of Ace-K62 of PKM2 in HepG2 cells; type: cell-based, human; settings: 20 h, 0.25, 1 and 5 μM
Experimental: Total RNA was extracted after the indicated treatments using the RNeasy Mini Kit (cat. no. 74106; QIAGEN, Hilden, Germany) following the manufacturer’s protocol. The concentration of RNA was measured on a plate reader, and then the extracted RNA was converted to cDNA using a High-Capacity RNA-to-cDNA kit from Applied Biosystems (Thermo Fisher Scientific, Inc.). Quantitative real-time polymerase chain reaction was performed in triplicate in a 96-well optical PCR plate using a QuantStudio Real-Time PCR System. Gene expression levels were evaluated using the comparative CT method. Graphical representations of the data were generated by GraphPad Prism 8.
Previous studies indicate that MPS1 inhibitor exerts its antitumor effects by downregulating the levels of phosphorylated histone H3 ([Naud et al., 2013]), while HDAC8 inhibitor achieves its antitumor activity by upregulating lysine residue 62 acetylation (Ace-K62) levels of pyruvate kinase M2 (PKM2) ([Zhang et al., 2020]). The gene expression of P-histone H3 and Ace-K62 was detected in HepG2 cells with the treatment of MPH-5 for 20 h (at the concentration of 0, 0.25, 1, and 5 μM, respectively). […] As the concentration of MPH-5 increases, the inhibitory effect on P-histone H3 and the promotional effect on Ace-K62 become more pronounced.

[1] = In vivo pharmacokinetic study; settings: mouse, plasma, ip, BALB/c mice, i.p., 5 mg/kg
Experimental: MPH-5 was administered intraperitoneally to BALB/c mice at a dose of 5 mg/kg. The blood samples (0.25 mL) were collected at 0.25, 0.5, 1, 2, 4, 8, 16 and 24 h after dosing and centrifuged to obtain the plasma fraction. Plasma samples (50 μL) were transferred into a 96-well plate, followed by the addition of an internal standard solution of methanol/acetonitrile (1:1, v/v) (200 μL). After vortexing for 5 min, the mixture was centrifuged (12,000 rpm for 5 min) to obtain the supernatant (60 μL). A liquid chromatography-tandem mass spectrometry (LC-MS/MS) system was used for the pharmacokinetic study. Data were processed using Phoenix software.

MCF10A = assay: MTT cytotoxicity assay, MCF10A normal cells; type: cell-based; settings: Homo sapiens, MCF-10A, 72 h cell treatment
Experimental: as §1

HEK293 = assay: MTT cytotoxicity assay, HEK293 normal cells; type: cell-based; settings: Homo sapiens, 72 h cell treatment
Experimental: as §1

[2] = system: drug-resistant liver cancer cells (R-HepG2); assay: MTT cytotoxicity assay, R-HepG2; type: cell-based; settings: Homo sapiens, 72 h cell treatment
Experimental: as §1

Q: Which IC50 (BEAS-2B) does the source give for Cn1cc(-c2cc3cnc(Nc4ccc(-c5cncn5/C=C/C(=O)NO)cc4Cl)cc3n2C(=O)OC(C)(C)C)cn1 [MPH-5] here?
A: > 10 µM

Q: What about the “K62 acetylation levels (Ace-K62 of PKM2)” value (Ace-K62 of PKM2) of the same compound?
A: dose-dependent regulation

Q: And the AUC ([1]; read-out: AUC (h·nmol/L), area under the drug-time curve)?
A: 13800 nmol·h/L

Q: And the Cmax ([1]; read-out: Cmax (nmol/L), maximum plasma concentration)?
A: 2920 nmol/L

Q: What about the bioavailability ([1]; read-out: F (%), bioavailability) of the same compound?
A: 85%

Q: And the half-life ([1]; read-out: T1/2 (h), elimination half-life (converted))?
A: 3.46 h

Q: What about the IC50 (MCF10A) of the same compound?
A: > 10 µM

Q: What about the IC50 (HEK293) of the same compound?
A: > 10 µM

Q: What about the IC50 [2] of the same compound?
A: 0.27 µM
